Source: patent US20210255193A1, “LYSINE REACTIVE PROBES AND USES THEREOF” (The Scripps Research Institute, priority 2017, published 2021)

Key:
Assay in all cases: competitive isoTOP-ABPP
[1] = target: T1, AGFG1 Arf-GAP domain and FG repeat-containing protein 1 (Homo sapiens, UniProt P52594); type: binding; design: key to isoTOP-ABPP reactivity ratio at lysine P52594_K134: R = MS1 peak area ratio, DMSO (heavy) / compound-treated (light); conditions: for isoTOP-ABPP ratio (R) at liganded lysine P52594_K134 / isoTOP-ABPP reactivity ratio at lysine P52594_K134: 50 uM, in vitro; for isoTOP-ABPP ratio (R) at liganded lysine P52594_K134: sol, 231; for isoTOP-ABPP ratio, lysine P52594_K134: 50 uM_231_sol_in vitro; for isoTOP-ABPP reactivity ratio at lysine P52594_K134: 231 sol
T1 construct: isoTOP-ABPP experiments performed in cell lysates (in vitro); endogenous in cells; host or cells: soluble proteome of human cancer cell lines (MDA-MB-231, Ramos, Jurkat)
T1 sequence (P52594 1-562): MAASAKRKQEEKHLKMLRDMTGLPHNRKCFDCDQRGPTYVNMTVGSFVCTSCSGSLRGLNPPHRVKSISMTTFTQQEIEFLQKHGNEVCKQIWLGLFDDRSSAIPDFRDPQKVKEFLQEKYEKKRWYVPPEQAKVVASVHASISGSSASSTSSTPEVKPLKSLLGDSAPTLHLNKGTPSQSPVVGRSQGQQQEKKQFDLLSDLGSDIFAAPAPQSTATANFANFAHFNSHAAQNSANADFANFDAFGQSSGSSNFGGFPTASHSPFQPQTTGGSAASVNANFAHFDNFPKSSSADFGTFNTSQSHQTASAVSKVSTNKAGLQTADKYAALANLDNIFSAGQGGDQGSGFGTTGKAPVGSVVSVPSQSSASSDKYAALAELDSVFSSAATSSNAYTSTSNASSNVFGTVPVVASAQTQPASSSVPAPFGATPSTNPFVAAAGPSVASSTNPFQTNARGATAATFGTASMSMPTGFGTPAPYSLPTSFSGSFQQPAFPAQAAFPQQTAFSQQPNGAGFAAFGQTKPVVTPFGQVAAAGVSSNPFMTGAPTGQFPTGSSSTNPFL
Method: (§1) In vitro covalent fragment treatment for isoTOP-ABPP. All compounds were made up as solutions in DMSO (100×) and were used at a final concentration of 50 μM for activated esters and 100 μM for guanidinylating agents. For each profiling sample, 0.5 ml of lysate was treated with 5 μl of the 100× compound stock solution or 5 μl of DMSO. Samples were treated with activated esters for
(§2) STP-alkyne labeling and click chemistry. For concentration-dependent reactivity measurements by isoTOP-ABPP, 0.5 ml proteome aliquots were treated at ambient temperature with 1 mM STP-alkyne 1 (5 μl of 100 mM stock in DMSO) and 0.1 mM STP alkyne 1 (5 μl of 10 mM stock in DMSO), respectively. For competitive isoTOP-ABPP, after in vitro fragment treatment (detailed above), the samples were labeled for 1 h at ambient temperature with 0.1 mM STP-alkyne 1 (5 μl of 10 mM stock in DMSO). Samples were conjugated by copper-mediated azide-alkyne cycloaddition (CuAAC) to either the light (1 mM STP-alkyne or fragment treated) or heavy (0.1 mM STP-alkyne or DMSO treated) TEV tags (10 μl of 5 mM stocks in DMSO, final concentration=100 μM) using tris(2-carboxyethyl)phosphine hydrochloride
(§3) R value calculation and processing. The ratios of light and heavy MS1 peaks for each unique peptide were quantified with a CIMAGE software using default parameters (3 MS1 acquisitions per peak and signal to noise threshold set to 2.5). For reactivity measurements by isoTOP-ABPP, the R value was calculated from the ratio of MS1 peak areas, comparing the 1 mM STP alkyne sample (light TEV tag) with the 0.1 mM STP alkyne sample (heavy TEV tag). For competitive isoTOP-ABPP, the R value was calculated from the ratio of MS1 peak areas, comparing the DMSO treated sample (heavy TEV tag) with the compound treated sample (light TEV tag). […] Ratios for unique peptide entries are calculated for each experiment; overlapping peptides with the same modified lysine (for example, different charge states, MudPIT chromatographic steps or tryptic termini) are grouped together and the median ratio is reported as the final ratio (R). The peptide ratios reported by CIMAGE were further filtered to ensure the removal or correction of low-quality ratios in each individual data set. The quality filters applied were the following: removal of half tryptic peptides; for ratios with high standard deviations from the median (90% of the median or above) the lowest ratio was taken instead of the median; removal of peptides with R=20 and only a single MS2 event triggered during the elution of the parent ion; manual annotation of all the peptides with ratios of 20, removing any peptides with low quality elution profiles that remained after the previous curation steps (only done for competitive isoTOP-ABPP).
(§4) Cross-data processing for fragment screening. For compound treated samples, biological replicates of the same condition were averaged, if the standard deviation was below 60% of the mean; otherwise, for lysines with at least one R value <4 for a particular compound, the lowest value of the ratio set was taken. For lysines, where all R values for a particular compound were ≥4, the average was reported. For peptides containing several possible modified lysines, the lysine with the highest number of quantification events was used for analysis and the remaining, redundant peptides were reported as alternative modification sites. Peptides included in the aggregate dataset (those used for further bioinformatics and statistical analyses) were required to have been quantified in 2 experiments for competitive isoTOP-ABPP. Lysines were categorized as liganded, if they had at least one ratio R≥4 (hit fragments). For liganded lysines with R=20 for all liganding events, lysines were required to have been quantified with R=20 in two separate experiments and were further required to have been quantified with R<20 in one additional experiment.

[2] = target: T2, ABCE1 ATP-binding cassette sub-family E member 1 (Homo sapiens, UniProt P61221); conditions: for isoTOP-ABPP ratio (R) at liganded lysine P61221_K191 / isoTOP-ABPP ratio (R) at liganded lysine P61221_K478 / isoTOP-ABPP reactivity ratio at lysine P61221_K191 / isoTOP-ABPP reactivity ratio at lysine P61221_K478: 50 uM, in vitro; for isoTOP-ABPP ratio (R) at liganded lysine P61221_K191 / isoTOP-ABPP ratio (R) at liganded lysine P61221_K478: sol, 231; for isoTOP-ABPP ratio, lysine P61221_K191 / isoTOP-ABPP ratio, lysine P61221_K478: 50 uM_231_sol_in vitro; for isoTOP-ABPP reactivity ratio at lysine P61221_K191 / isoTOP-ABPP reactivity ratio at lysine P61221_K478: 231 sol
T2 construct: isoTOP-ABPP experiments performed in cell lysates (in vitro); endogenous in cells; host or cells: soluble proteome of human cancer cell lines (MDA-MB-231, Ramos, Jurkat)
Method: as §1, §2, §3, §4

[3] = target: T3, HDHD3 Haloacid dehalogenase-like hydrolase domain-containing protein 3 (Homo sapiens, UniProt Q9BSH5); type: binding; design: key to isoTOP-ABPP reactivity ratio at lysine Q9BSH5_K15: R = MS1 peak area ratio, DMSO (heavy) / compound-treated (light); conditions: for isoTOP-ABPP ratio (R) at liganded lysine Q9BSH5_K15 / isoTOP-ABPP reactivity ratio at lysine Q9BSH5_K15: 50 uM, in vitro; for isoTOP-ABPP ratio (R) at liganded lysine Q9BSH5_K15: sol, 231; for isoTOP-ABPP ratio, lysine Q9BSH5_K15: 50 uM_231_sol_in vitro; for isoTOP-ABPP reactivity ratio at lysine Q9BSH5_K15: 231 sol
T3 construct: isoTOP-ABPP experiments performed in cell lysates (in vitro); endogenous in cells; host or cells: soluble proteome of human cancer cell lines (MDA-MB-231; Ramos and Jurkat also prepared)
T3 sequence (Q9BSH5 1-251): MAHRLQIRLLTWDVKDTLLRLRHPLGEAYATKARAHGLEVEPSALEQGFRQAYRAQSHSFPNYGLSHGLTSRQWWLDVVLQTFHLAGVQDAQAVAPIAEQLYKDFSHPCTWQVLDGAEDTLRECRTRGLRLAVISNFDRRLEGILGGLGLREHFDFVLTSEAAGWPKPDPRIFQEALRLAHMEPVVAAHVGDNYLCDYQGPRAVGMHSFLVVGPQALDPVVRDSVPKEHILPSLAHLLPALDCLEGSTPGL
Method: as §1, §2, §3, §4

Structure (SMILES)	isoTOP-ABPP ratio (R) at liganded lysine P52594_K134 [1]	isoTOP-ABPP ratio (R) at liganded lysine P61221_K191 [2]	isoTOP-ABPP ratio (R) at liganded lysine P61221_K478 [2]	isoTOP-ABPP ratio (R) at liganded lysine Q9BSH5_K15 [3]	further results
O=C(Oc1ccc([N+](=O)[O-])cc1[N+](=O)[O-])c1ccccc1Nc1cccc(C(F)(F)F)c1 [fragment 40, 2,4-Dinitrophenyl 2-((3-(trifluoromethyl)phenyl)amino)benzoate]	0.8	0.9	1.0	0.9	
N#Cc1ccc(C(=O)Oc2ccc([N+](=O)[O-])cc2[N+](=O)[O-])cc1 [fragment 44, 2,4-Dinitrophenyl 4-cyanobenzoate]					isoTOP-ABPP ratio, lysine P52594_K134 [1]: 1.5; isoTOP-ABPP ratio, lysine P61221_K191 [2]: 1.1; isoTOP-ABPP ratio, lysine P61221_K478 [2]: 0.9; isoTOP-ABPP ratio, lysine Q9BSH5_K15 [3]: 20.0
O=C(Oc1ccc([N+](=O)[O-])cc1[N+](=O)[O-])C(c1ccccc1)c1ccccc1 [fragment 30, 2,4-Dinitrophenyl 2,2-diphenylacetate]					isoTOP-ABPP reactivity ratio at lysine P52594_K134 [1]: 14.3; isoTOP-ABPP reactivity ratio at lysine P61221_K191 [2]: 1.1; isoTOP-ABPP reactivity ratio at lysine P61221_K478 [2]: 1.1; isoTOP-ABPP reactivity ratio at lysine Q9BSH5_K15 [3]: 20.0
O=C(ON1C(=O)CCC1=O)c1cc(C(F)(F)F)cc(C(F)(F)F)c1 [fragment 46, 3,5-Bis(trifluoromethyl)benzoic acid NHS ester]					isoTOP-ABPP ratio, lysine P52594_K134 [1]: 1.0; isoTOP-ABPP ratio, lysine P61221_K191 [2]: 20.0; isoTOP-ABPP ratio, lysine P61221_K478 [2]: 11.4; isoTOP-ABPP ratio, lysine Q9BSH5_K15 [3]: 1.4
O=C(Oc1ccc([N+](=O)[O-])cc1[N+](=O)[O-])c1ccc(Oc2ccccc2)cc1 [fragment 39, 2,4-Dinitrophenyl 4-phenoxybenzoate]	1.0	0.8	1.0	1.3	
O=C(Oc1ccc([N+](=O)[O-])cc1[N+](=O)[O-])c1ccc(-c2ccccc2)cc1 [fragment 37, 2,4-Dinitrophenyl [1,1′-biphenyl]-4-carboxylate]	1.1	0.9	1.0	4.3	
COc1cc(CCC(=O)Oc2ccc([N+](=O)[O-])cc2[N+](=O)[O-])cc(OC)c1OC [fragment 33, 2,4-Dinitrophenyl 3-(3,4,5-trimethoxyphenyl)propanoate]					isoTOP-ABPP reactivity ratio at lysine P52594_K134 [1]: 20.0; isoTOP-ABPP reactivity ratio at lysine P61221_K191 [2]: 1.1; isoTOP-ABPP reactivity ratio at lysine P61221_K478 [2]: 1.2; isoTOP-ABPP reactivity ratio at lysine Q9BSH5_K15 [3]: 1.5
CC(=O)Oc1ccc([N+](=O)[O-])cc1[N+](=O)[O-] [fragment 43, 2,4-Dinitrophenyl acetate]	4.8	1.3	1.4	3.1	
